The results in this text go back to patent US10544156B2, “Hemi-synthetic trilobine analogs for use as a drug” (PIERRE FABRE MEDICAMENT, priority 2015, dated 2020).

Read-outs that look alike come from different tables or passages of the source.

What is called EC50 is the concentration giving half of the maximal effect. In general, inhibition refers to the percentage by which the read-out fell short of the control. As usually defined, the IC50 is the concentration needed to halve the response being measured.

Experiment [1] deals with T1, human C-terminal DNMT3A (623-908a.a.) (Homo sapiens, UniProt Q9Y6K1).
T1 construct: The human C-terminal DNMT3A (623-908a.a.); made in house
T1 sequence (Q9Y6K1 627-912 limits assumed): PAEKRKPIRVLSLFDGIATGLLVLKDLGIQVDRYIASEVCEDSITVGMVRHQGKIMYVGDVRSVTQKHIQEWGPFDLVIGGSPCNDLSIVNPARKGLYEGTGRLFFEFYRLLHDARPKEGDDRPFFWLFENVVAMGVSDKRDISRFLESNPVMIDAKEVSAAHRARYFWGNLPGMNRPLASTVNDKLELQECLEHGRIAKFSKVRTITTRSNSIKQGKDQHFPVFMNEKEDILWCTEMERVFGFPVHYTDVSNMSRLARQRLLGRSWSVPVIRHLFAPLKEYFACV
In words: hDNMT3A assay (restriction-based fluorescence assay). It counts as biochemical. The following applies: for inhibition at 10 µM: read-out: hDNMT 3A inhibition, Inhibition (%) 10 μM; for inhibition at 32 µM: read-out: hDNMT 3A inhibition, Inhibition (%) 32 μM. The source says:
hDNMT3A enzyme inhibition was adapted from the restriction-based fluorescence assay protocol as described in the literature (Ceccaldi et al. Chem Bio Chem 2011, 12, 1337-1345). Briefly, a 5′-labelled biotin oligonucleotide is hybridized to its complementary strand labelled with 6-carboxyfluorescein at the 3′-end into a 384 well microplate (black Optiplates; Perkin Elmer) pre-coated with avidin. The duplex contains a unique CpG site overlapping with a restriction site of a methylation sensitive restriction enzyme. The human C-terminal DNMT3A (623-908a.a.), produced as described in (Gros et al. Nucl. Acids Res. 2013, 41(19):e185), was added in each well (200 ng/well) and mixed with the chemical compounds at desired concentrations and freshly prepared SAM (20 μM final concentration) to start the reaction in a total volume of 50 μL. After 1 hour incubation at 37° C. each well were washed three times with PBS, Tween-20 0.05%, NaCl (500 mM) and three more times with PBST. Specific fluorescent signals were detected with the methylation-sensitive restriction enzyme HpyCH4IV (NEB) as described and measured on a Perkin Elmer Envision detector. The percentage of inhibition is reported. The formula used to calculate the percentage of inhibition is [(X−Y)/X]×100, where X is the signal determined in the absence of the inhibitor and Y is the signal obtained in the presence of the inhibitor. The concentration at which 50% of efficacy of inhibition is observed (EC50) was determined by analysis of a concentration range of the tested compound in triplicates. The non-linear regression fittings with sigmoidal dose-response (variable slope) were performed with GraphPad Prism 4.03 (GraphPad Software).

Experiment [2] has as its target T2, His-DNMT1 (182 kDa, human) (Homo sapiens, UniProt P26358).
T2 construct: His; made in house
Kind of experiment: hDNMT1 assay ([methyl-3H] SAM Flashplate). The following applies: for EC50: read-out: EC50 (μM), hDNMT 1 inhibition; for inhibition at 10 µM: read-out: hDNMT 1 inhibition, Inhibition (%) 10 μM; for inhibition at 32 µM: read-out: hDNMT 1 inhibition, Inhibition (%) 32 μM. It is filed as biochemical. Here is the method:
His-DNMT1 (182 kDa, human) was cloned, expressed and purified as described (Halby et al. Chem Bio Chem 2012, 13, 157-165). The reaction was performed in a 10 μL total reaction volume in low volume NBS™ 384-well microplates (Corning), containing the tested compound (up to 1% DMSO), 1 μM of a SAM/[methyl-^3H] SAM (3TBq/mmol, PerkinElmer) mix in a ratio of 3-to-1 (isotopic dilution 1*:3), 0.3 μM of biotinylated hemimethylated DNA duplex (5′-GATmCGCmCGATGmCGmCGAATmCGmCGATmCGATGmCGAT-3′ and BIOT-5′-[…]-3′), and 90 nM of DNMT1 in methylation buffer (20 mM HEPES pH 7.2, 1 mM EDTA, 50 mM KCl, 25 μg/mL BSA). The reaction was incubated at 37° C. for 2 hours. 8 μL are then transferred into a streptavidin 96-well scintillant coated Flashplate™ (PerkinElmer) containing 190 μL of 20 μM SAH in 50 mM Tris-HCl pH 7.4. The Flashplate™ was agitated at room temperature for 1 hour and read in 200 μL of 50 mM Tris-HCl pH 7.4 on TopCount NXT (PerkinElmer). The percentage of inhibition is reported. The formula used to calculate the percentage of inhibition is [(X−Y)/X]×100, where X is the signal determined in the absence of the inhibitor and Y is the signal obtained in the presence of the inhibitor.

Experiment [3] has as its system luciferase reporter gene under control of methylated CMV promoter in KG-1 cells. In words: CMV-luc reexpression in KG-1 cells. It counts as cell-based, human. To be noted: for Induction Fold (IF) of luciferase gene reporter in KG-1 CMV-Luc: 24 h, vs DMSO; for IF-24 h, KG1 CMV-Luc model: at 5 μM, 24 h (Table 5). Here is the method: KG-1 cells were stably transfected with the firefly luciferase reporter gene (luc+ from pGL3; Promega) under the control of the cytomegalovirus (CMV) promoter (from pEGFP-N1; Clontech Laboratories Inc.) partially methylated (50%). 20,000 cells per well were seeded in a 96-well plate. After 24 h incubation in the presence of the test compound or solvant (DMSO), the induction of the promoter was measured by quantification of the luciferase signal with the Brite-lite assay system (PerkinElmer) according to the manufacturer's protocol. The luminescence was measured on an EnVision multilabel plate reader (PerkinElmer), and the data are expressed as the fold induction as compared with the DMSO control. The mean of three experiments and the standard error is reported.

For experiment [4], the system named is HCT116 (colorectal cancer). In words: Anti-proliferative activity (ATPLite). It counts as cell-based. To be noted: Homo sapiens, HCT-116; daily treatment, cell viability by ATPLite; read-out: Antiproliferative activity: IC50 (μM) HCT116 (colorectal cancer). The protocol: (§1) To measure the anti-proliferative properties of tested molecules, 2×10^4 cells are seeded at day 0 in a 96 wells plate. The compounds to be tested, stored at −20° C. as 10^−2 M stock solution in 100% DMSO, are freshly diluted on day 1 in the cell medium, before adding a dose range of 3.2 nM to 10 μM to the cells. Cells are treated everyday and cell viability assessed after 3 days or 7 days of treatment. The cell viability is assessed using the ATPLite kit from Perkin (ATPlite 1 Step Luminescence Assay System, ref 3016739), following the provider instructions. The raw data are analyzed with GraphPad Prism software (v4.03) to generate IC50 values corresponding to the compound concentrations giving 50% reduction in cell viability. The values presented are the mean results of at least two independent experiments. The standard errors are indicated.
Background: Cellular ATP, detected with luciferase, serves as a proxy for viable cell number.

Experiment [5] deals with KG-1 (leukemia). Kind of experiment: Anti-proliferative activity (ATPLite). It is filed as cell-based. To be noted: Homo sapiens; daily treatment, cell viability by ATPLite; read-out: Antiproliferative activity: IC50 (μM) KG-1 (leukemia). The protocol: as §1
The mark [6] stands for this setting: concentration at which 50% of efficacy of inhibition is observed, read-out: EC50 (μM), hDNMT 3A inhibition.
[7] abbreviates: interval line below the EC50 of the same compound, read-out: EC50 (μM), range given.

T2 sequence (P26358 whole entry): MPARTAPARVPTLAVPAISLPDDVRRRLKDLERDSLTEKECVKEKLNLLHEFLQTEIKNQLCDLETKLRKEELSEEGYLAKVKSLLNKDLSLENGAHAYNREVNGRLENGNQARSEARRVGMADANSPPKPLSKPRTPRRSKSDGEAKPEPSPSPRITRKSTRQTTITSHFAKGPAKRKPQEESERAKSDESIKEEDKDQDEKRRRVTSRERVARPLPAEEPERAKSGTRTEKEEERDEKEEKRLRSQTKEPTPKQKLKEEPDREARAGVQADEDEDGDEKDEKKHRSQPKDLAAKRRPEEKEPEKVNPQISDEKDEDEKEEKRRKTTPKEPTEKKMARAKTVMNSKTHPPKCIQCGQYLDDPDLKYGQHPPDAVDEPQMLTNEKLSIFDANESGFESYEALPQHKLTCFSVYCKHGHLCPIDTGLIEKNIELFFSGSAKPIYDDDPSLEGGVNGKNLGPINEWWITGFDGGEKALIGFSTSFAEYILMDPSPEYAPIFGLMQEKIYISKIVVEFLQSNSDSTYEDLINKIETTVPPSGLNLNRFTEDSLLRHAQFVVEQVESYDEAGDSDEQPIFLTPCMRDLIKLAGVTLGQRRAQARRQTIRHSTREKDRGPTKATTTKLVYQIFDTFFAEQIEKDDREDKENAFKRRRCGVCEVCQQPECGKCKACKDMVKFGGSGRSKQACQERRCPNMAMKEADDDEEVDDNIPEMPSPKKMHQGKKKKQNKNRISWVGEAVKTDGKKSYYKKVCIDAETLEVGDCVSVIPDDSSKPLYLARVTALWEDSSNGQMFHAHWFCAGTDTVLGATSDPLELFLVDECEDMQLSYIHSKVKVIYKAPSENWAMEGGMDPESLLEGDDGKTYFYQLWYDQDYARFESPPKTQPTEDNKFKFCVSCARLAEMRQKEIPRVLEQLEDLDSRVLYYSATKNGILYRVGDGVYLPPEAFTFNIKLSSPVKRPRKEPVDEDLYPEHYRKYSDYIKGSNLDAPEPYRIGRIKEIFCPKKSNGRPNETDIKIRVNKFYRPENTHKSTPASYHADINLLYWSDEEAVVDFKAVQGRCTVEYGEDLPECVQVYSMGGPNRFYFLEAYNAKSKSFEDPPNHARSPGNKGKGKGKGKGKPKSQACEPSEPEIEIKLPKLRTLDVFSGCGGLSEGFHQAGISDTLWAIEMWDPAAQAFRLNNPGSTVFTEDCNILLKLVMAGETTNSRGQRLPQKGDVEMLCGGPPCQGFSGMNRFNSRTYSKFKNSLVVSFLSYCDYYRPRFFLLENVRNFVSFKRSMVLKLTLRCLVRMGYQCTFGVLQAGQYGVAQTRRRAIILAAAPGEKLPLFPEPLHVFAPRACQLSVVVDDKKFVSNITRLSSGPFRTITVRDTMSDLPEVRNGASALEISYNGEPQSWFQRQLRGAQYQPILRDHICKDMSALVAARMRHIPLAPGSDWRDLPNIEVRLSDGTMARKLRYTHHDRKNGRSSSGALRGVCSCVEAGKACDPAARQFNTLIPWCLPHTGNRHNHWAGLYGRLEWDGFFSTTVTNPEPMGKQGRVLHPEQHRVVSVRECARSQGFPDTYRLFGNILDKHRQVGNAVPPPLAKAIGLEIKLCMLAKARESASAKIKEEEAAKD

Regarding `CCN(CC)CCCNC(=S)N1CCc2cc3c4cc2[C@@H]1Cc1ccc(OC)c(c1)Oc1ccc(cc1)C[C@H]1c2c(cc(OC)c(c2O4)O3)CCN1C` [Product 42], the values for the EC50 in experiment [1] (setting [6]), in experiment [1] (setting [7]) and in experiment [2] were 0.64 µM, 0.47 to 0.86 µM and 10.6 ± 2.8 µM, respectively. The inhibition at 10 µM in experiment [1] was 98%; in experiment [2] it was 38%. Moreover, the inhibition at 32 µM in experiment [1] came out at 98%; in experiment [2], 100%. Also, the “Induction Fold (IF) of luciferase gene reporter in KG-1 CMV-Luc” value in experiment [3] (0.1 μM) is 1.2 ± 0.1; in experiment [3] (0.32 μM) it was 1.3 ± 0.1; in experiment [3] (1 μM), 1.5 ± 0.1; in experiment [3] (3.2 μM), 2.0 ± 0.2; in experiment [3] (5 μM), 2.3 ± 0.1. Further, the “IF-24 h, KG1 CMV-Luc model” value in experiment [3] is given as 1.1 ± 0.6. In addition, the IC50 in experiment [4] was found to be 0.5 ± 0.01 µM; in experiment [5], 3.57 ± 0.04 µM.

For `CCN(CC)CCCNC(=O)N1CCc2cc3c4cc2[C@@H]1Cc1ccc(OC)c(c1)Oc1ccc(cc1)C[C@H]1c2c(cc(OC)c(c2O4)O3)CCN1C(=O)NCCCN(CC)CC` [Product 48], the EC50 in experiment [1] (setting [6]) was 1.93 µM; in experiment [1] (setting [7]), 1 to 3.72 µM; in experiment [2], 14.6 ± 1.3 µM. In addition, the values for the inhibition at 10 µM in experiment [1] and in experiment [2] were 82% and 32%, respectively. The inhibition at 32 µM in experiment [1] and in experiment [2] was 98% throughout. Besides, the “Induction Fold (IF) of luciferase gene reporter in KG-1 CMV-Luc” value is 1.1 ± 0.1 in experiment [3] (0.1 μM); 1.2 ± 0.3 in experiment [3] (0.32 μM); 1.2 ± 0.1 in experiment [3] (1 μM); 1.2 ± 0.1 in experiment [3] (3.2 μM); 1.3 ± 0.1 in experiment [3] (5 μM); 2.3 ± 1.3 in experiment [3] (10 μM). In experiment [3], the “IF-24 h, KG1 CMV-Luc model” value is reported as 1.1.
